The values that follow are results of earlier work, collected in patent publication US20130266625A1 (YISSUM RESEARCH DEVELOPMENT COMPANY OF THE HEBREW …, priority 2011, published 2013).

The subject of series [1] is cultured dermal fibroblasts.
The subject of series [2] is procollagen alpha1 (I), MMP-1 and TIMP-1 expression in skin. The conditions noted are these: 5% in ethanol:olive oil (1:2), 12 times over 4 weeks.
The conditions of series [3]: 50 mg/day over one year.

With `C[C@]12CC[C@H](O)CC1=CC[C@@H]1[C@@H]2CC[C@]2(C)C(=O)CC[C@@H]12` [DHEA, dehydroepiandrosterone], in series [1], the “matrix metalloproteinase (MMP)-1 synthesis” value is “decreasing”, the procollagen synthesis entry is “increase procollagen synthesis” and the “tissue inhibitor of matrix metalloprotease (TIMP-1) production” value is “increasing”. Moreover, the “basal expression of MMP-1 mRNA and protein” value in series [2] is reported as “significantly decreased”. For the same compound, the “expression of procollagen alpha1 (I) mRNA and protein” value in series [2] (aged and young skin) is on record as “significantly increase”. In addition, in series [2] (aged skin), the “expression of TIMP-1 protein” value was “increased”. The harmful consequences entry in series [3] was “no harmful consequences were observed”. In addition, the “skin status (hydration, epidermal thickness, sebum production, skin pigmentation)” value in series [3] (individuals aged 60 years and over) is on record as “improvement of the skin status”.
